Experimental data published in paper PMC8998978, “Toward a Treatment of Cancer: Design and In Vitro/In Vivo Evaluation of Uncharged Pyrazoline Derivatives as a Series of Novel SHP2 Inhibitors” (International Journal of Molecular Sciences, 2022).

Experiments:
[1] = system: K562 cells; experiment: Cell viability assay (MTT); type: cell-based; conditions: Homo sapiens, K562, 72 h
Description: (§1) Human colon cancer cell line HCT116, hepatoma cell lines HepG2 and BEL-7402, lung adenocarcinoma cell lines NCI-H1975 and 95-D, pancreatic cancer cell line Panc-1, breast cancer cell line MDA-MB-231, NSCLC cell line NCI-H1299, ovarian cancer cell line SK-OV-3, leukemia cell line K562, glioma cell line U87, colon epithelial cell line NCM460 and umbilical vein endothelial cell line HUVEC were purchased from the Institute of Biochemistry and Cell Biology, Chinese Academy of Sciences (Shanghai, China). HCT116 cell line was cultured in McCoy’s 5A medium (Hyclone, Logan, UT, USA). HepG2, 95-D, Panc-1, MDA-MB-231, BEL-7402, SK-OV-3, U87 and NCM460 cell lines were cultured in DMEM-High glucose medium (Hyclone, Logan, UT, USA). NCI-H1975, NCI-H1299 and HUVEC cell lines were cultured in RPMI 1640 medium (Hyclone, Logan, UT, USA). K562 cell line was cultured in IMDM medium (Hyclone, Logan, UT, USA). […]
(§2) The inhibition rate of cell viability was detected by 3-(4,5-dimethyl-2-thiazolyl)-2,5-diphenyl-2-H-tetrazolium bromide (MTT, Solarbio, Beijing, China) or Sulforhodamine B (SRB, Sigma-Aldrich, St. Louis, MO, USA) assay. […] The absorbance at 570 nm was measured in a multimode reader (Berthold Technologies, Germany). […] Finally, Tris–HCl solution was added, and the absorbance at 515 nm was detected in a multimode reader (Berthold Technologies, Germany).

[2] = system: HUVEC cells; experiment: Cell viability assay (SRB), normal cells; type: cell-based; conditions: Homo sapiens, 72 h
Description: as §1, §2

[3] = system: NCM460 cells; experiment: Cell viability assay (SRB), normal cells; type: cell-based; conditions: Homo sapiens, 72 h
Description: as §1, §2

[4] = system: HCT116 cells; experiment: Cell viability assay (SRB); type: cell-based, human
Description: as §1, §2

[5] = molecular target: T1, recombinant human SHP2 protein (Homo sapiens, UniProt Q06124); experiment: Inhibition type of SHP2 (double reciprocal plot, pNPP); type: biochemical; conditions: 4o 0, 0.5, 1, 2 µM; various pNPP concentrations
T1 sequence (Q06124 1-593): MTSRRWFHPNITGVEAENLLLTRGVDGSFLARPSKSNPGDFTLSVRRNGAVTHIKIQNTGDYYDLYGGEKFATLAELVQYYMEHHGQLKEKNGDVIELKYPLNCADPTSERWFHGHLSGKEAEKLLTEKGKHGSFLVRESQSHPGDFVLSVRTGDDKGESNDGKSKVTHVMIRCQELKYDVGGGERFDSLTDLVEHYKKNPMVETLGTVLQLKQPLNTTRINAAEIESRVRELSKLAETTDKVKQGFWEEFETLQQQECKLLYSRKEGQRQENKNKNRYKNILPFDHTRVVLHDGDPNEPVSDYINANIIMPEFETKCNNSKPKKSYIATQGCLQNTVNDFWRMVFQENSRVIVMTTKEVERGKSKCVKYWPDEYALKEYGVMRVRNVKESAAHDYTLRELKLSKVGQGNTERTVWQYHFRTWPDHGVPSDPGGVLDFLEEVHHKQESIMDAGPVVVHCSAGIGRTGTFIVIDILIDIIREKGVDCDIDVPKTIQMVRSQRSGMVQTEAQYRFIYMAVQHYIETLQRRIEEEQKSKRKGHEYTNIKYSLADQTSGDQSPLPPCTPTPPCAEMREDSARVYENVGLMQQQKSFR
Experimental: Inhibition kinetic studies were performed with various concentrations of pNPP in the absence or presence of inhibitors. The experimental results were analyzed using double reciprocal plotting to evaluate the type of inhibition.
The experimental process was similar to the SHP2 inhibition assay. In the assay, the initial rates at a series of pNPP concentrations were determined at various fixed inhibitor concentrations of 4o (0 µM, 0.5 µM, 1 µM and 2 µM) as described above. The values of 1/[S] and 1/[V] were obtained from the substrate concentration and initial reaction rate, and were plotted on the x-axis and y-axis, respectively. The inhibition type of SHP2 was determined according to the intersection characteristics of the obtained approximate line.

## CCOc1ccc(Oc2ccc(C3=NN(C4=NC(=O)CS4)C(c4cc(O)c(O)c(Br)c4Br)C3)cc2)cc1 (stereo not drawn) [Compound 4o, 2-(5-(2,3-dibromo-4,5-dihydroxyphenyl)-3-(4-(4-ethoxyphenoxy)phenyl)-4,5-dihydro-1H-pyrazol-1-yl)thiazol-4(5H)-one]
[1]
  IC50: 9.6 ± 0.68 µM
[2]
  IC50: 28.3 ± 1.63 µM
[3]
  IC50: 27.1 ± 0.66 µM
[4]; 24, 48 and 72 h
  Growth inhibition of HCT116 cells: time- and dose-dependent manner
[4]; Homo sapiens, HCT-116, HCT116, 72 h
  IC50: 2.64 ± 0.17 µM
[5]
  Inhibition type of SHP2: competitive SHP2 inhibitor
